Source: patent publication EP2002836B1, “Cyclocondensed azaindoles active as kinase inhibitors” (Nerviano Medical Sciences S.r.l., priority 2007, dated 2008)

What follows are compounds tested against AKT1 (Homo sapiens, UniProt P31749) (assay: Biochemical assay for inhibitors of AKT1 kinase activity (33P trans-phosphorylation, Dowex resin)). Details: 5 nM enzyme, 132 microM ATP, 30 microM peptide substrate; read-out: AKT1 IC50 (µM) Biochem assay.
Design: made in house
Experimental: The N-terminal GST fusion proteins used for the assays were prepared according to the methods described in Kumar, C. C. Biochem. Biophys. ACTA 2001, 1526, 257-268, and in Alessi, D. R.. Biochem. J. 1998 331, 299-308.
The inhibitory activity of putative kinase inhibitors and the potency of selected compounds were determined using a trans-phosphorylation assay.
A specific substrate was incubated with the kinase in appropriate buffer conditions in the presence of ATP traced with ^33P-γ-ATP (gamma phosphate-labeled, Redivue™ Code Number AH9968, 1000-3000Ci/mmole, Amersham Biosciences Piscataway, NJ, USA), optimal cofactors and test compound.
At the end of the phosphorylation reaction, more than 98% cold and radioactive ATP were captured by an excess of Dowex ion exchange resin. The resin was allowed to settle to the bottom of reaction wells by gravity. Supernatant, containing substrate peptide, was subsequently withdrawn and transferred into a counting plate, and radioactivity (corresponding to phosphate incorporated into peptide) was evaluated by β-counting.
Kinase buffer was composed of 50 mM TRIS pH 7.5 containing10 mM MgCl2, 1 mM DTT, 3 microM Na3VO4, and 0.2 mg/mL BSA. 3X KB is buffer of the same composition and pH as KB, but with three times the concentration of each component. iii.Assay conditions (final concentrations) for AKT1.
The kinase assay was run with a final enzyme concentration of 5 nM, in the presence of 132 microM ATP, 0.88 nM ^33P-γ-ATP and 30 microM substrate, a carboxy-terminally biotinylated peptide of the following sequence: ARKRERTYSFGHHA-biotin. The peptide was obtained in batches of >95% peptide purity from PRIMM labs Inc. (Boston MA, USA).
The "test" mixture of 15 microL consisting of: • 1) 5 µl/well of 3x Enzyme mix (done in Kinase Buffer 3X), • 2) 5 µl/well of 3x substrate and ATP mix (done in ddH2O), together with ^33P-γ-ATP, • 3) 5 µl/well of 3x test compounds (diluted into ddH2O - 3% DMSO).
For % inhibition studies, dilution plates at 1 mM, 10 microM and 100 microM were prepared in 100% DMSO, then diluted to 3X final desired concentration (30, 3 and 0.3 microM) in ddH2O, 3% DMSO. A Multimek 96 (Beckman Coulter, Inc. 4300 N. Harbor Boulevard, P.O. Box 3100 Fullerton, CA 92834-3100 USA) was used for compound pipetting into test plates.
For IC50 determination, starting solutions of 30 microM compound in 3% DMSO were derived from 1 mM/100% DMSO stock solutions. These 30 microM starting solutions were used for generation of a further 9 serial 1/3 dilutions in ddH20, 3% DMSO, so as to generate a 10-point dilution curve at 3X the final assay concentration. Serial dilution was conducted in 96-well plates using a Biomek 2000 (Beckman Coulter) system. Dilution curves of 7 compounds/plate were prepared, and each plate also included a 10-point dilution curve of Staurosporine, as well as several negative and positive control wells.
384-well plates, V bottom (test plates) are prepared with 5 µl of the compound dilution (3X) and then placed onto a PlateTrak 12 robotized station (Perkin Elmer; the robot has one 384-tips pipetting head for starting the assay plus one 96-tips head for dispensing the resin) together with one reservoir for the Enzyme mix (3X) and one for the ATP mix (3X).
At the start of the run, the robot aspirates 5 µl of ATP mix, makes an air gap inside the tips (3 µl) and aspirates 5 µl of AKT mix. The following dispensation into the plates allows the kinase reaction to start upon 3 cycles of mixing, done by the robot itself.
The robot incubates the plates for 60 minutes at room temperature, and then stops the reaction by pipetting 70 µl of dowex resin suspension into the reaction mix. Three cycles of mixing are done immediately after the addition of the resin.
Another mixing cycle is performed after all the plates are stopped, this time using normal tips: the plates are then allowed to rest for about one hour in order to maximize ATP capture. […]

Sequence of AKT1 (P31749 whole entry): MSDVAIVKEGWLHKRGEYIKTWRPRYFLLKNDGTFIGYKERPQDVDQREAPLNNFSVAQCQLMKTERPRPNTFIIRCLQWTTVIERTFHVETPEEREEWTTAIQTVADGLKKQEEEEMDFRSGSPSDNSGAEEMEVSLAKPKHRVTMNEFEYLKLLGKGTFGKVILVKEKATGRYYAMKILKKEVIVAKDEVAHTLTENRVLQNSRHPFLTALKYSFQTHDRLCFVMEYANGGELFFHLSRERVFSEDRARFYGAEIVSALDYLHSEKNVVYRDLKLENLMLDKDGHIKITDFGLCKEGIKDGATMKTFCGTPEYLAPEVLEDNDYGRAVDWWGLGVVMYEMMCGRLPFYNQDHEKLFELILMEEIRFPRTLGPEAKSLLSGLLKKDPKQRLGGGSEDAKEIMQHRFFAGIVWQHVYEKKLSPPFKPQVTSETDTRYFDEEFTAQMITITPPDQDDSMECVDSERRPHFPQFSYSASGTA

IC50 [µM]	Compound
0.05	NC[C@H](Cc1ccccc1)NC(=O)C1=Cc2c[nH]c3nccc(c23)CC1 [Cpd. 1, N-[(1S)-2-amino-1-benzylethyl]-6,7-dihydro-2H-2,3-diazabenzo[cd]azulene-8-carboxamide]
0.184	CC(=O)N1CC(C(=O)N[C@H](CN)Cc2ccccc2)=Cc2c[nH]c3nccc1c23 [Cpd. 3, 6-acetyl-N-[(1S)-2-amino-1-benzylethyl]-6,7-dihydro-2H-2,3,6-triazabenzo[cd]azulene-8-carboxamide]
0.121	O=C(N[C@H](CN1CCCC1)c1ccccc1)C1=Cc2c[nH]c3nccc(c23)CC1 [Cpd. 6, N-[(1S)-1-phenyl-2-pyrrolidin-1-ylethyl]-6,7-dihydro-2H-2,3-diazabenzo[cd]azulene-8-carboxamide]
0.017	NC[C@H](Cc1ccccc1)NC(=O)C1=Cc2c[nH]c3nccc(c23)NC1 [compound 2, N-[(1S)-2-amino-1-benzylethyl]-6,7-dihydro-2H-2,3,6-triazabenzo[cd]azulene-8-carboxamide]
